Experimental data: the supplement of paper PMC10307832

How the values were obtained:
Test in all cases: relative viability (nuclei count vs DMSO), 5 days (fraction); higher = more cells survive
[1] = compound: CC[C@H](C)N1C=C(C2=C(C=C(C=C21)C3=CN=C(C=C3)N4CCNCC4)C(=O)NCC5=C(C=C(NC5=O)C)C)C [GSK126] + Cc1nc(Nc2ncc(C(=O)Nc3c(C)cccc3Cl)s2)cc(N2CCN(CCO)CC2)n1 [Dasatinib] (partner 0.075 µM)
Summary of the method: (§1)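 Five library-drug doses in √10 steps were combined with a fixed anchor-drug dose, or a single drug was given alone, by pin tool to lung cancer cell lines in 1536-well plates the day after seeding. Nuclei were stained and counted after 5 days. Relative viability is the nuclei count in treated wells over that in vehicle wells, taken as the median of duplicate plates.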

[2] = compound: NS(=O)(=O)OC[C@@H]1C[C@@H](n2ccc3c(N[C@H]4CCc5ccccc54)ncnc32)C[C@@H]1O [MLN4924] + CS(=O)(=O)CCNCc1ccc(-c2ccc3ncnc(Nc4ccc(OCc5cccc(F)c5)c(Cl)c4)c3c2)o1 [Lapatinib] (partner 2 µM)
Summary of the method: as §1

[3] = compound: C1CC(C1)(C(=O)O)C(=O)O.[NH2-].[NH2-].[Pt+2] [Carboplatin] + Cc1nc(Nc2ncc(C(=O)Nc3c(C)cccc3Cl)s2)cc(N2CCN(CCO)CC2)n1 [Dasatinib] (partner 0.075 µM)
Summary of the method: as §1

[4] = compound: NS(=O)(=O)OC[C@@H]1C[C@@H](n2ccc3c(N[C@H]4CCc5ccccc54)ncnc32)C[C@@H]1O [MLN4924] + N=C(N)NC(=N)NCCc1ccccc1 [Phenformin] (partner 250 µM)
Summary of the method: as §1

Cell Line	relative viability ([1]; first compound 0.08 µM)	relative viability ([1]; first compound 0.253 µM)	relative viability ([1]; first compound 0.8 µM)	relative viability ([1]; first compound 2.53 µM)	relative viability ([1]; first compound 8 µM)	relative viability ([2]; first compound 0.04 µM)	relative viability ([2]; first compound 0.1265 µM)	relative viability ([2]; first compound 0.4 µM)	relative viability ([2]; first compound 1.265 µM)	relative viability ([2]; first compound 4 µM)	relative viability ([3]; first compound 0.08 µM)	relative viability ([3]; first compound 0.253 µM)	relative viability ([3]; first compound 0.8 µM)	relative viability ([3]; first compound 2.53 µM)	relative viability ([3]; first compound 8 µM)	relative viability ([4]; first compound 0.04 µM)	relative viability ([4]; first compound 0.1265 µM)	relative viability ([4]; first compound 0.4 µM)	relative viability ([4]; first compound 1.265 µM)	relative viability ([4]; first compound 4 µM)
NCI-H1437	0.392	0.368	0.416	0.441	0.349	0.79	0.656	0.268	0.119	0.1	0.619	0.411	0.428	0.411	0.325	0.325	0.337	0.388	0.258	0.195
EMC-BAC-2	0.346	0.339	0.176	0.259	0.332	0.468	0.913	0.303	0.217	0.178	0.327	0.343	0.305	0.271	0.281	0.37	0.424	0.296	0.193	0.218
NCI-H520	0.184	0.172	0.185	0.19	0.238	0.594	0.437	0.323	0.17	0.162	0.216	0.239	0.185	0.263	0.193	0.566	0.439	0.429	0.265	0.238
NCI-H1993	0.701	0.598	0.375	0.703	0.646	0.732	0.666	0.581	0.547	0.516	0.517	0.591	0.522	0.559	0.601	0.535	0.579	0.528	0.468	0.487
HCC-827	0.333	0.275	0.401	0.396	0.287	0.242	0.283	0.398	0.182	0.166	0.327	0.326	0.337	0.35	0.432	0.453	0.462	0.316	0.144	0.136
NCI-H2087	1.14	0.707	0.856	0.78	0.908	0.843	0.597	0.233	0.142	0.132	0.85	0.932	0.833	0.689	0.613	0.442	0.349	0.298	0.0782	0.0942
HARA	0.3	0.281	0.226	0.262	0.241	0.856	0.607	0.283	0.0754	0.0741	0.205	0.252	0.209	0.213	0.302	0.35	0.355	0.177	0.0555	0.0476
NCI-H2126	0.656	0.661	0.644	0.671	0.494	0.724	0.762	0.406	0.241	0.261	0.727	0.693	0.71	0.57	0.501	0.566	0.566	0.432	0.321	0.304
LCLC-103H	0.485	0.45	0.464	0.447	0.51						0.481	0.55	0.524	0.482	0.445	0.358	0.368	0.347	0.157	0.143
SK-LU-1	0.213	0.231	0.189	0.199	0.173	0.703	0.491	0.299	0.19	0.181	0.198	0.205	0.166	0.179	0.165	0.514	0.558	0.22	0.0997	0.131
EKVX	0.523	0.309	0.543	0.589	0.508	0.208	0.311	0.19	0.119	0.102	0.603	0.582	0.48	0.446	0.495	0.228	0.221	0.239	0.175	0.138
HCC-366	0.77	0.654	0.586	0.696	0.591	0.788	0.479	0.037	0.0233	0.0288	0.609	0.619	0.624	0.594	0.403	0.612	0.634	0.454	0.11	0.0866
NCI-H1650	0.349	0.333	0.284	0.281	0.338	0.385	0.261	0.182	0.149	0.185	0.31	0.357	0.321	0.273	0.299	0.398	0.339	0.231	0.146	0.198
COR-L23	0.594	0.488	0.488	0.392	0.415	0.921	0.672	0.431	0.142	0.106	0.51	0.536	0.436	0.373	0.216	0.42	0.332	0.326	0.133	0.0871
NCI-H647	0.193	0.206	0.171	0.111	0.179	0.817	0.539	0.0888	0.0473	0.0818	0.196	0.18	0.216	0.164	0.161	0.367	0.348	0.118	0.0487	0.0541
LXF-289	0.31	0.223	0.19	0.257	0.358	0.804	0.682	0.416	0.184	0.15	0.327	0.24	0.223	0.264	0.232	0.491	0.41	0.293	0.163	0.121
NCI-H1703						0.416	0.205	0.218	0.189	0.164										
NCI-H1793	0.441	0.373	0.356	0.431	0.405	0.662	0.645	0.395	0.136	0.167	0.432	0.384	0.394	0.355	0.381	0.292	0.367	0.313	0.224	0.183
NCI-H522	0.871	0.699	0.794	1.02	0.775						0.751	0.88	0.859	0.911	0.886	0.642	0.676	0.454	0.424	0.293

Cell Line	relative viability ([1]; first compound 0.08 µM)	relative viability ([1]; first compound 0.253 µM)	relative viability ([1]; first compound 0.8 µM)	relative viability ([1]; first compound 2.53 µM)	relative viability ([1]; first compound 8 µM)	relative viability ([2]; first compound 0.04 µM)	relative viability ([2]; first compound 0.1265 µM)	relative viability ([2]; first compound 0.4 µM)	relative viability ([2]; first compound 1.265 µM)	relative viability ([2]; first compound 4 µM)	relative viability ([3]; first compound 0.08 µM)	relative viability ([3]; first compound 0.253 µM)	relative viability ([3]; first compound 0.8 µM)	relative viability ([3]; first compound 2.53 µM)	relative viability ([3]; first compound 8 µM)	relative viability ([4]; first compound 0.04 µM)	relative viability ([4]; first compound 0.1265 µM)	relative viability ([4]; first compound 0.4 µM)	relative viability ([4]; first compound 1.265 µM)	relative viability ([4]; first compound 4 µM)
LOU-NH91	0.552	0.609	0.538	0.594	0.567	0.814	0.926	0.904	0.533	0.414	0.674	0.578	0.542	0.568	0.538	0.6	0.853	0.763	0.467	0.425
NCI-H1355	0.842	0.733	0.705	0.842	0.727	0.952	1.02	0.64	0.181	0.166	0.729	0.759	0.776	0.667	0.656	0.42	0.407	0.352	0.218	0.235
NCI-H441	0.618	0.688	0.458	0.796	0.407						0.665	0.798	0.546	0.627	0.47	0.79	0.554	0.333	0.211	0.227
NCI-H1395	0.464	0.439	0.406	0.399	0.427	0.793	0.986	0.5	0.39	0.351	0.423	0.367	0.392	0.42	0.516	0.447	0.499	0.481	0.382	0.357
NCI-H2023	0.641	0.566	0.584	0.627	0.661	0.352	0.133	0.0733	0.0477	0.0781	0.584	0.635	0.471	0.29	0.149	0.392	0.393	0.175	0.0707	0.0769
NCI-H1666	0.675	0.586	0.579	0.616	0.656	0.382	0.307	0.305	0.159	0.211	0.836	0.774	0.589	0.533	0.561	0.509	0.453	0.449	0.265	0.337
HCC-15	0.728	0.671	0.578	0.609	0.653	0.514	0.374	0.115	0.0895	0.0956	0.69	0.645	0.621	0.591	0.407	0.319	0.191	0.145	0.0825	0.0982
NCI-H3122	0.969	0.728	0.819	0.748	1.2	0.991	0.629	0.293	0.177	0.206	0.759	0.996	0.87	0.961	0.816	0.315	0.274	0.169	0.131	0.136
201T	0.558	0.639	0.61	0.607	0.519	1.13	1.09	0.826	0.384	0.417	0.575	0.571	0.569	0.487	0.576	0.553	0.555	0.43	0.278	0.327
ChaGo-K-1	0.653	0.552	0.629	0.572	0.547						0.559	0.61	0.612	0.477	0.309	0.315	0.298	0.24	0.199	0.176
Calu-6						0.868	0.6	0.211	0.122	0.129										
EBC-1						0.246	0.297	0.228	0.191	0.216										
IA-LM						0.256	0.239	0.103	0.0582	0.0755										
NCI-H1299						0.954	0.838	0.329	0.282	0.253										
NCI-H2342	0.358	0.288	0.312	0.314	0.315						0.328	0.344	0.311	0.28	0.294	0.705	0.661	0.613	0.551	0.501
HCC-44						0.657	0.249	0.159	0.142	0.145						0.144	0.172	0.0837	0.0692	0.102
SW 900	0.695	0.494	0.622	0.508	0.548						0.837	0.616	0.442	0.409	0.467	0.205	0.483	0.258	0.15	0.128
NCI-H1623	0.529	0.567	0.602	0.482	0.5						0.583	0.553	0.57	0.506	0.469	0.503	0.479	0.39	0.274	0.248
A549						0.71	0.667	0.079	0.0634	0.0662						0.0967	0.154	0.0425	0.0445	0.0437
